Test results published in publication PMC11876601 (Molecular Systems Biology, 2025).
Like-named read-outs stand apart in the source and are kept apart here.

Key:
Assay in all cases: cells
HPDE = system: HPDE; set-up: ATPlite luminescence viability of PDAC cell lines, 11-dose single-agent curves, 4-parameter fit; conditions: HPDE, 72 h, read-out: EC50 [nM]
In short: (§1)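 cells (1000 to 5000 per well) seeded 24 h before drug addition in a combination screen at 0.2% final DMSO. Controls were drug-free wells (negative) and 5 µM staurosporine (positive).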

Colo-357 [1] = system: Colo-357; set-up: ATPlite luminescence viability of PDAC cell lines, 11-dose single-agent curves, 4-parameter fit; conditions: Homo sapiens, COLO357, 72 h, read-out: EC50 [nM]
In short: as §1

Dan-G [2] = system: Dan-G; set-up: ATPlite luminescence viability of PDAC cell lines, 11-dose single-agent curves, 4-parameter fit; conditions: 72 h, read-out: EC50 [nM]
In short: as §1

HuP-T4 = system: HuP-T4; set-up: Viability of PDAC cell lines, ATPlite luminescence, 11-dose single-agent curve fit; conditions: Homo sapiens, HuP-T4, 72 h, read-out: EC50 [nM]
In short: (§2)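 cells (1000 to 5000 per well) seeded 24 h before drug addition in a screen at 0.2% final DMSO. Controls were drug-free wells (negative) and 5 µM staurosporine (positive).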

PaTu-8988-T [3] = system: PaTu-8988-T; set-up: Viability of PDAC cell lines, ATPlite luminescence, 11-dose single-agent curve fit; conditions: Homo sapiens, PaTu 8988t, 72 h, read-out: EC50 [nM]
In short: as §2

FAMPAC [4] = system: FAMPAC; set-up: Viability of PDAC cell lines, ATPlite luminescence, 11-dose single-agent curve fit; conditions: 72 h, read-out: EC50 [nM]
In short: as §2

AsPC-1 [5] = system: AsPC-1; set-up: Viability of PDAC cell lines, ATPlite luminescence, 11-dose single-agent curve fit; conditions: Homo sapiens, ASPC1, 72 h, read-out: EC50 [nM]
In short: as §2

MiaPaCa-2 [6] = system: MiaPaCa-2; set-up: Viability of PDAC cell lines, ATPlite luminescence, 11-dose single-agent curve fit; conditions: Homo sapiens, MIA PaCa-2, 72 h, read-out: EC50 [nM]
In short: as §2

Capan-1 = system: Capan-1; set-up: Viability of PDAC cell lines, ATPlite luminescence, 11-dose single-agent curve fit; conditions: Homo sapiens, CAPAN-1, 72 h, read-out: EC50 [nM]
In short: as §2

Suit2-07 [7] = system: Suit2-07; set-up: Viability of PDAC cell lines, ATPlite luminescence, 11-dose single-agent curve fit; conditions: 72 h, read-out: EC50 [nM]
In short: as §2

BxPC-3 [8] = system: BxPC-3; set-up: Viability of PDAC cell lines, ATPlite luminescence, 11-dose single-agent curve fit; conditions: Homo sapiens, BXPC-3, 72 h, read-out: EC50 [nM]
In short: as §2

PANC-1 = system: PANC-1; set-up: Viability of PDAC cell lines, ATPlite luminescence, 11-dose single-agent curve fit; conditions: Homo sapiens, PANC-1, 72 h, read-out: EC50 [nM]
In short: as §2

PSN-1 [9] = system: PSN-1; set-up: Viability of PDAC cell lines, ATPlite luminescence, 11-dose single-agent curve fit; conditions: Homo sapiens, PSN1, 72 h, read-out: EC50 [nM]
In short: as §2

FAMPAC [10] = system: FAMPAC; set-up: ATPlite luminescence viability of PDAC cell lines, 11-dose single-agent curves, 4-parameter fit; conditions: 72 h, read-out: EC50 [nM]
In short: as §1

BxPC-3 [11] = system: BxPC-3; set-up: ATPlite luminescence viability of PDAC cell lines, 11-dose single-agent curves, 4-parameter fit; conditions: Homo sapiens, BXPC-3, 72 h, read-out: EC50 [nM]
In short: as §1

PaTu-8988-T [12] = system: PaTu-8988-T; set-up: ATPlite luminescence viability of PDAC cell lines, 11-dose single-agent curves, 4-parameter fit; conditions: Homo sapiens, PaTu 8988t, 72 h, read-out: EC50 [nM]
In short: as §1

AsPC-1 [13] = system: AsPC-1; set-up: ATPlite luminescence viability of PDAC cell lines, 11-dose single-agent curves, 4-parameter fit; conditions: Homo sapiens, ASPC1, 72 h, read-out: EC50 [nM]
In short: as §1

MiaPaCa-2 [14] = system: MiaPaCa-2; set-up: ATPlite luminescence viability of PDAC cell lines, 11-dose single-agent curves, 4-parameter fit; conditions: Homo sapiens, MIA PaCa-2, 72 h, read-out: EC50 [nM]
In short: as §1

Suit2-07 [15] = system: Suit2-07; set-up: ATPlite luminescence viability of PDAC cell lines, 11-dose single-agent curves, 4-parameter fit; conditions: 72 h, read-out: EC50 [nM]
In short: as §1

PSN-1 [16] = system: PSN-1; set-up: ATPlite luminescence viability of PDAC cell lines, 11-dose single-agent curves, 4-parameter fit; conditions: Homo sapiens, PSN1, 72 h, read-out: EC50 [nM]
In short: as §1

Colo-357 [17] = system: Colo-357; set-up: Viability of PDAC cell lines, ATPlite luminescence, 11-dose single-agent curve fit; conditions: Homo sapiens, COLO357, 72 h, read-out: EC50 [nM]
In short: as §2

Dan-G [18] = system: Dan-G; set-up: Viability of PDAC cell lines, ATPlite luminescence, 11-dose single-agent curve fit; conditions: 72 h, read-out: EC50 [nM]
In short: as §2

Row | Structure (SMILES) | EC50 (HPDE) | EC50 (Colo-357 [1]) | EC50 (Dan-G [2]) | EC50 (HuP-T4) | EC50 (PaTu-8988-T [3]) | EC50 (FAMPAC [4]) | EC50 (AsPC-1 [5]) | EC50 (MiaPaCa-2 [6]) | EC50 (Capan-1) | EC50 (Suit2-07 [7]) | EC50 (BxPC-3 [8]) | EC50 (PANC-1) | EC50 (PSN-1 [9]) | EC50 (FAMPAC [10]) | EC50 (BxPC-3 [11]) | EC50 (AsPC-1 [13]) | EC50 (MiaPaCa-2 [14]) | EC50 (Suit2-07 [15]) | EC50 (Colo-357 [17]) | also measured
1 | C#Cc1cccc(Nc2ncnc3cc4c(cc23)OCCOCCOCCO4)c1 [Icotinib] | 1000 nM | 2260 nM | 1530 nM | 0.21 nM | 91.9 nM | 6990 nM | 416 nM | 1760 nM | 1900 nM | 101 nM | 5260 nM | 716 nM | 42 nM | – | – | – | – | – | – | –
2 | C[C@@H]1COC(Nc2ccc3ncnc(Nc4ccc(OCc5nccs5)c(Cl)c4)c3c2)=N1 [Varlitinib] | 1930 nM | 676 nM | 630 nM | 40.5 nM | 861 nM | – | 390 nM | 4440 nM | 724 nM | 2070 nM | – | > 10000 nM | 2940 nM | > 10000 nM | 1760 nM | – | – | – | – | –
3 | CCn1c(=O)c(-c2cc(NC(=O)Nc3ccccc3)c(F)cc2Br)cc2cnc(NC)cc21 [Ripretinib] | 901 nM | – | 501 nM | 592 nM | – | – | – | – | 758 nM | – | – | > 10000 nM | – | 912 nM | 467 nM | 1270 nM | 589 nM | 431 nM | 611 nM | EC50 (PaTu-8988-T [12]): 717 nM; EC50 (PSN-1 [16]): 582 nM
4 | C[C@]1(O)C[C@@H](c2nc(-c3ccc4ccc(-c5ccccc5)nc4c3)c3c(N)nccn32)C1 [Linsitinib] | 7060 nM | – | – | 21.6 nM | 6100 nM | 4850 nM | – | – | 1750 nM | – | > 10000 nM | > 10000 nM | 7340 nM | – | – | 1540 nM | 416 nM | 239 nM | 4180 nM | EC50 (Dan-G [18]): 3840 nM
5 | C=CC(=O)N1CCC([C@@H]2CCNc3c(C(N)=O)c(-c4ccc(Oc5ccccc5)cc4)nn32)CC1 [Zanubrutinib] | 3010 nM | – | – | 796 nM | 547 nM | 75.9 nM | 300 nM | 9130 nM | 2290 nM | 7180 nM | – | 3410 nM | 132 nM | – | > 10000 nM | – | – | – | 2200 nM | EC50 (Dan-G [18]): 578 nM
6 | C=CC(=O)N1CCC[C@@H](n2nc(-c3ccc(Oc4ccccc4)cc3)c3c(N)ncnc32)C1 [Ibrutinib] | 521 nM | – | 56.6 nM | 54.2 nM | 166 nM | 28.3 nM | 46.1 nM | 1840 nM | 317 nM | 396 nM | 128 nM | 1170 nM | 1100 nM | – | – | – | – | – | 373 nM | –
7 | CCN(CC)CCNC(=O)c1c(C)[nH]c(/C=C2\C(=O)Nc3ccc(F)cc32)c1C [Sunitinib] | 5050 nM | – | 4120 nM | 114 nM | – | – | – | – | > 10000 nM | – | – | > 10000 nM | – | 5670 nM | 2840 nM | > 10000 nM | 2340 nM | 3180 nM | 10100 nM | EC50 (PaTu-8988-T [12]): 2190 nM; EC50 (PSN-1 [16]): 5160 nM
8 | O=C1CCc2c(Oc3ccc4c(c3)[C@@H]3[C@H](O4)[C@H]3c3nc4cc(C(F)(F)F)ccc4[nH]3)ccnc2N1 [Lifirafenib] | 1980 nM | – | 2000 nM | 4500 nM | – | – | – | – | 9370 nM | – | – | > 10000 nM | – | 2510 nM | 3060 nM | 966 nM | 2650 nM | > 10000 nM | 3500 nM | EC50 (PaTu-8988-T [12]): 2540 nM; EC50 (PSN-1 [16]): 696 nM
9 | CNC(=O)c1cccc2cc(Oc3ccnc4cc(OCC5(N)CC5)c(OC)cc34)ccc12 [Lucitanib] | 9210 nM | – | – | > 10000 nM | 5920 nM | > 10000 nM | 8920 nM | > 10000 nM | > 10000 nM | 5330 nM | 9500 nM | 2920 nM | 8180 nM | – | – | – | – | – | > 10000 nM | EC50 (Dan-G [18]): 665 nM
10 | CS(=O)(=O)CCNCc1ccc(-c2ccc3ncnc(Nc4ccc(OCc5cccc(F)c5)c(Cl)c4)c3c2)o1 [Lapatinib] | > 10000 nM | 815 nM | 3780 nM | > 10000 nM | > 10000 nM | > 10000 nM | > 10000 nM | > 10000 nM | > 10000 nM | 7910 nM | 8320 nM | > 10000 nM | > 10000 nM | – | – | – | – | – | – | –
11 | COc1cc2ncnc(Nc3cccc(Cl)c3F)c2cc1OC(=O)N1CCN(C)C[C@H]1C [AZD3759] | 483 nM | 464 nM | 445 nM | 2590 nM | 1690 nM | 2880 nM | 515 nM | 2570 nM | 1200 nM | 1330 nM | 847 nM | 8860 nM | 2560 nM | – | – | – | – | – | – | –
